# Assay results taken from patent US20240327801A1, “EFFICIENT CELL CULTURE SYSTEM FOR HEPATITIS C VIRUS GENOTYPE 4a” (Hvidovre Hospital, priority 2021, published 2024).
# Like-named read-outs stand apart in the source and are kept apart here.
# Columns and labels:
# ED43-virus = type: cell-based, hepatitis C virus genotype 4a
# [1] = tested on: original ED43 virus (HCV genotype 4a full-length culture virus); test: concentration-response (EC50) assay, original virus; details: Hepatitis C virus, Huh7.5, 48 h, read-out: EC50 (nM [95% CI])
# Description: Huh7.5 cells were seeded on 96-well plates overnight, then infected with the indicated viruses for 24 hours. The cells were subsequently treated with specific inhibitors for an additional 48 hours before analysis as described (Pham et al. 2018; Gottwein et al. 2011). Values are means of triplicates±SEM. The original D43 virus was used in these two experiments as a control. TN (1a) virus was included for comparison.
# Huhu7.5 cells were seeded on 96-well plates overnight, then infected with the indicated viruses for 24 hours. The cells were subsequently treated with specific inhibitors for an additional 48 hours before analysis as described (Pham et al. 2018; Gottwein et al. 2011). Values are means of triplicates±SEM. The original ED43 virus was used as a control. TN (1a) virus was included for comparison.
# For concentration-response assays using described methods (Pham et al. 2018; Ramirez et al. 2016; Ramirez et al. 2014), stocks of non-treated and of single-treatment escape viruses were prepared. […] The half-maximal effective concentration (EC50) value was calculated using GraphPad Prism 6.
# [2] = tested on: SOFesc virus (ED43 sofosbuvir escape virus); test: microbe, parasite or virus in culture; type: cell-based; details: Hepatitis C virus, Huh7.5 cells, 48 hours treatment, read-out: EC50 (nM [95% CI])
structure (smiles),measurement,setting,value
COC(=O)N[C@H](C(=O)N1CC2(CC2)C[C@H]1c1nc(-c2ccc3c(c2)C(F)(F)c2cc(-c4ccc5[nH]c([C@@H]6[C@H]7CC[C@H](C7)N6C(=O)[C@@H](NC(=O)OC)C(C)C)nc5c4)ccc2-3)c[nH]1)C(C)C [ledipasvir],emergence of main RASs responsible for ED43 escape,ED43-virus; 100×EC50,5 days
CC(C)OC(=O)[C@H](C)N[P@](=O)(OC[C@H]1O[C@@H](n2ccc(=O)[nH]c2=O)[C@](C)(F)[C@@H]1O)Oc1ccccc1 [sofosbuvir],EC50,[1],668 nM
same,EC50,[2],2250 nM
same,viral escape,"ED43-virus; 2×EC50 (initiated at 1×EC50, increased at day 9)",77 days
COC[C@H]1C[C@@H](c2nc(-c3ccc4c(c3)COc3cc5c(ccc6nc([C@@H]7CC[C@H](C)N7C(=O)[C@@H](NC(=O)OC)C(C)C)[nH]c65)cc3-4)c[nH]2)N(C(=O)[C@H](NC(=O)OC)c2ccccc2)C1 [velpatasvir],viral escape,ED43-virus; 100×EC50,did not observe viral escape
COC(=O)N[C@H](C(=O)N1CCC[C@H]1c1nc2cc([C@H]3CC[C@H](c4cc5nc([C@@H]6CCCN6C(=O)[C@@H](NC(=O)OC)[C@@H](C)OC)[nH]c5cc4F)N3c3cc(F)c(N4CCC(c5ccc(F)cc5)CC4)c(F)c3)c(F)cc2[nH]1)[C@@H](C)OC [pibrentasvir],viral escape,ED43-virus; 5×EC50,≤ 33 days
same,treatment outcome,ED43-virus; 10×EC50,viral eradication
COC(=O)N[C@H](C(=O)N1CCC[C@H]1c1nc(-c2ccc3c(c2)O[C@@H](c2ccccc2)n2c-3cc3cc(-c4c[nH]c([C@@H]5CCCN5C(=O)[C@@H](NC(=O)OC)C(C)C)n4)ccc32)c[nH]1)C(C)C [elbasvir],emergence of main RASs responsible for ED43 escape,ED43-virus; 100×EC50,5 days
COC(=O)N[C@H](C(=O)N1CCC[C@H]1C(=O)Nc1ccc([C@@H]2CC[C@@H](c3ccc(NC(=O)[C@@H]4CCCN4C(=O)[C@@H](NC(=O)OC)C(C)C)cc3)N2c2ccc(C(C)(C)C)cc2)cc1)C(C)C [ombitasvir],emergence of main RASs responsible for ED43 escape,ED43-virus; 100×EC50,5 days
Cc1cnc(C(=O)N[C@H]2CCCCC/C=C\[C@@H]3C[C@@]3(C(=O)NS(=O)(=O)C3CC3)NC(=O)[C@@H]3C[C@@H](Oc4nc5ccccc5c5ccccc45)CN3C2=O)cn1 [paritaprevir],emergence of RAS NS3P-D168E after treatment initiation,ED43-virus; 8×EC50,7 days
same,viral escape / viral spread under treatment,ED43-virus; 8×EC50,16 days
